Experimental data published in ChEMBL document CHEMBL3817739, “Synthesis and cytotoxic evaluation of several oleanolic aciduracil/thymine conjugates” (Medchemcomm, 2016).
Active and inactive are the calls of the source. No cut-off for these calls is given here.

Legend:
[1] = test system: HepG2; test: Induction of apoptosis in human HepG2 cells assessed as early apoptotic cells at 2 uM after 24 hrs by Annexin V-FITC/propidium iodide staining based flow cytometry (reference value: 1.36%); type: functional
[2] = test system: HepG2; test: Induction of apoptosis in human HepG2 cells assessed as viable cells at 2 uM after 24 hrs by Annexin V-FITC/propidium iodide staining based flow cytometry (reference value: 93.2%); type: functional; settings: HepG2, 24 h, read-out: Activity
[3] = test system: HepG2; test: Disruption of mitochondrial membrane potential in human HepG2 cells assessed as mitochondrial membrane potential at 3 uM after 24 hrs by Rhodamine 123 staining based flow cytometry (reference value: 86.2%); type: functional
[4] = test system: HepG2; test: Cell cycle arrest in human HepG2 cells assessed as accumulation at S phase at 2 uM after 48 hrs by propidium iodide staining based flow cytometry (reference value: 25.52%); type: functional
[5] = test system: HepG2; test: Induction of apoptosis in human HepG2 cells assessed as caspase 9 activation at 4 uM using FITC-LEHD-FMK as probe after 24 hrs by flow cytometry (reference value: 4.4%); type: functional
[6] = test system: HepG2; test: Cell cycle arrest in human HepG2 cells assessed as accumulation at G2/M phase at 4 uM after 48 hrs by propidium iodide staining based flow cytometry (reference value: 13.83%); type: functional
[7] = test system: HepG2; test: Cytotoxicity against human HepG2 cells assessed as inhibition of cell proliferation after 72 hrs by MTT assay; type: functional, cell-based; settings: HepG2, 72 h
[8] = test system: MCF7; test: Cytotoxicity against human MCF7 cells assessed as inhibition of cell proliferation after 72 hrs by MTT assay; type: functional, cell-based; settings: MCF7, 72 h
[9] = test system: HepG2; test: Cell cycle arrest in human HepG2 cells assessed as accumulation at S phase at 3 uM after 48 hrs by propidium iodide staining based flow cytometry (reference value: 25.52%); type: functional
[10] = test system: HepG2; test: Induction of apoptosis in human HepG2 cells assessed as necrotic cells at 4 uM after 24 hrs by Annexin V-FITC/propidium iodide staining based flow cytometry (reference value: 2.7%); type: functional
[11] = test system: HepG2; test: Induction of morphological changes in human HepG2 cells assessed as chromatin condensation and fragmentation at 2 to 4 uM after 24 hrs by acridine orange/ethidium bromide double staining based fluorescence microscopy; type: functional, cell-based
[12] = test system: HepG2; test: Disruption of mitochondrial membrane potential in human HepG2 cells assessed as mitochondrial membrane potential at 4 uM after 24 hrs by Rhodamine 123 staining based flow cytometry (reference value: 86.2%); type: functional
[13] = test system: HepG2; test: Disruption of mitochondrial membrane potential in human HepG2 cells assessed as mitochondrial membrane potential at 2 uM after 24 hrs by Rhodamine 123 staining based flow cytometry (reference value: 86.2%); type: functional
[14] = test system: A549; test: Cytotoxicity against human A549 cells assessed as inhibition of cell proliferation after 72 hrs by MTT assay; type: functional, cell-based; settings: A549, 72 h
[15] = test system: HepG2; test: Induction of apoptosis in human HepG2 cells assessed as viable cells at 4 uM after 24 hrs by Annexin V-FITC/propidium iodide staining based flow cytometry (reference value: 93.2%); type: functional; settings: HepG2, 24 h, read-out: Activity
[16] = test system: HepG2; test: Induction of apoptosis in human HepG2 cells assessed as late apoptotic cells at 2 uM after 24 hrs by Annexin V-FITC/propidium iodide staining based flow cytometry (reference value: 2.7%); type: functional
[17] = test system: HepG2; test: Cell cycle arrest in human HepG2 cells assessed as accumulation at G1 phase at 2 uM after 48 hrs by propidium iodide staining based flow cytometry (reference value: 60.65%); type: functional
[18] = test system: HepG2; test: Cell cycle arrest in human HepG2 cells assessed as accumulation at G2/M phase at 3 uM after 48 hrs by propidium iodide staining based flow cytometry (reference value: 13.83%); type: functional
[19] = test system: HepG2; test: Induction of apoptosis in human HepG2 cells assessed as early apoptotic cells at 4 uM after 24 hrs by Annexin V-FITC/propidium iodide staining based flow cytometry (reference value: 1.36%); type: functional
[20] = test system: HepG2; test: Cell cycle arrest in human HepG2 cells assessed as accumulation at G2/M phase at 2 uM after 48 hrs by propidium iodide staining based flow cytometry (reference value: 13.83%); type: functional
[21] = Cytotoxicity against human BGC823 cells assessed as inhibition of cell proliferation after 72 hrs by MTT assay; type: functional, cell-based; settings: BGC-823, 72 h
[22] = Cytotoxicity against human PC3 cells assessed as inhibition of cell proliferation after 72 hrs by MTT assay; type: functional, cell-based, PC-3
[23] = test system: HepG2; test: Cell cycle arrest in human HepG2 cells assessed as accumulation at S phase at 4 uM after 48 hrs by propidium iodide staining based flow cytometry (reference value: 25.52%); type: functional
[24] = test system: HepG2; test: Cell cycle arrest in human HepG2 cells assessed as accumulation at G1 phase at 3 uM after 48 hrs by propidium iodide staining based flow cytometry (reference value: 60.65%); type: functional
[25] = test system: HepG2; test: Induction of apoptosis in human HepG2 cells assessed as karyopyknosis and chromatin condensation at 2 to 4 uM after 24 hrs by Hoechst 33258 staining based fluorescence microscopy; type: functional, cell-based
[26] = test system: HepG2; test: Induction of apoptosis in human HepG2 cells assessed as caspase 3 activation at 4 uM using FITC-DEVD-FMK as probe after 24 hrs by flow cytometry (reference value: 3.3%); type: functional
[27] = test system: HepG2; test: Cell cycle arrest in human HepG2 cells assessed as accumulation at G1 phase at 4 uM after 48 hrs by propidium iodide staining based flow cytometry (reference value: 60.65%); type: functional
[28] = test system: HepG2; test: Induction of apoptosis in human HepG2 cells assessed as necrotic cells at 2 uM after 24 hrs by Annexin V-FITC/propidium iodide staining based flow cytometry (reference value: 2.7%); type: functional
[29] = test system: HepG2; test: Induction of apoptosis in human HepG2 cells assessed as late apoptotic cells at 4 uM after 24 hrs by Annexin V-FITC/propidium iodide staining based flow cytometry (reference value: 2.7%); type: functional
[30] = test system: HepG2; test: Disruption of mitochondrial membrane potential in human HepG2 cells after 24 hrs by Rhodamine 123 staining based flow cytometry; type: functional, cell-based
[31] = Homo sapiens, PC-3, 72 h, read-out: IC50

CC1(C)CC[C@]2(C(=O)OCCCCCCn3ccc(=O)[nH]c3=O)CC[C@]3(C)C(=CC[C@@H]4[C@@]5(C)CC[C@H](O)C(C)(C)[C@@H]5CC[C@]43C)[C@@H]2C1 gave an Activity [1] of 1.91%, a viability at 2 µM [2] of 88% and an Activity [3] of 67%. The Activity [4] was 6.51%, the Activity [5] was 27.9% and the Activity [6] was 3.25%. It also gave an IC50 [7] of 3.98 µM, an IC50 [8] of 2.75 µM and an Activity [9] of 10.18%. The Activity [10] was 4.32%, the Activity [11] was “Active” and the Activity [12] was 49.4%. The Activity [13] was 77.7%, the IC50 [14] was 3.16 µM and the viability at 4 µM [15] was 76.1%. It also gave an Activity [16] of 7.75%, an Activity [17] of 92.75% and an Activity [18] of 1.73%. For the same compound, the Activity [19] was 1.83%, the Activity [20] was 0.74% and the IC50 [21] was 1.28 µM. For the same compound, the IC50 [22, 31] was 0.18 µM, the Activity [23] was 14.27% and the Activity [24] was 88.09%. The Activity [25] was “Active”, the Activity [26] was 31% and the Activity [27] was 82.48%. The Activity [28] was 2.36%, the Activity [29] was 17.7% and the Activity [30] was “Dose-dependent effect”.
Compound Cc1cn(CCCCCCOC(=O)[C@]23CCC(C)(C)C[C@H]2C2=CC[C@@H]4[C@@]5(C)CC[C@H](O)C(C)(C)[C@@H]5CC[C@@]4(C)[C@]2(C)CC3)c(=O)n(CCCCCCOC(=O)[C@]23CCC(C)(C)C[C@H]2C2=CC[C@@H]4[C@@]5(C)CC[C@H](O)C(C)(C)[C@@H]5CC[C@@]4(C)[C@]2(C)CC3)c1=O has an IC50 [7] of 4.84 µM, an IC50 [8] of 33.6 µM and an IC50 [14] of less than 0.1 µM. It also gave an IC50 [21] of 0.62 µM and an IC50 [22, 31] of 0.87 µM.
Cc1cn(CCCCOC(=O)[C@]23CCC(C)(C)C[C@H]2C2=CC[C@@H]4[C@@]5(C)CC[C@H](O)C(C)(C)[C@@H]5CC[C@@]4(C)[C@]2(C)CC3)c(=O)n(CCCCOC(=O)[C@]23CCC(C)(C)C[C@H]2C2=CC[C@@H]4[C@@]5(C)CC[C@H](O)C(C)(C)[C@@H]5CC[C@@]4(C)[C@]2(C)CC3)c1=O gave an IC50 [7] of 3.02 µM, an IC50 [8] of 3.69 µM and an IC50 [14] of less than 0.1 µM. For the same compound, the IC50 [21] was 16 µM and the IC50 [22, 31] was 1.28 µM.
Cc1cn(CCCCCCCCOC(=O)[C@@]23CCC(C)(C)C[C@@H]2C2=CC[C@H]4[C@]5(C)CC[C@@H](O)C(C)(C)[C@H]5CC[C@]4(C)[C@@]2(C)CC3)c(=O)n(CCCCCCCCOC(=O)[C@@]23CCC(C)(C)C[C@@H]2C2=CC[C@H]4[C@]5(C)CC[C@@H](O)C(C)(C)[C@H]5CC[C@]4(C)[C@@]2(C)CC3)c1=O showed an IC50 [7] of 4.83 µM, an IC50 [8] of 4.45 µM and an IC50 [14] of less than 0.1 µM. The IC50 [21] was 3.11 µM and the IC50 [22, 31] was 20 µM.
With CC1(C)CC[C@]2(C(=O)OCCn3ccc(=O)n(CCOC(=O)[C@]45CCC(C)(C)C[C@H]4C4=CC[C@@H]6[C@@]7(C)CC[C@H](O)C(C)(C)[C@@H]7CC[C@@]6(C)[C@]4(C)CC5)c3=O)CC[C@]3(C)C(=CC[C@@H]4[C@@]5(C)CC[C@H](O)C(C)(C)[C@@H]5CC[C@]43C)[C@@H]2C1 the IC50 [7] was 111 µM, the IC50 [8] was 29.8 µM and the IC50 [14] was 9.21 µM. For the same compound, the IC50 [21] was 0.86 µM and the IC50 ([22]; pc-3) was “Not Active”.
With Cc1cn(CCCCOC(=O)[C@]23CCC(C)(C)C[C@H]2C2=CC[C@@H]4[C@@]5(C)CC[C@H](O)C(C)(C)[C@@H]5CC[C@@]4(C)[C@]2(C)CC3)c(=O)[nH]c1=O the IC50 [7] was 2.41 µM, the IC50 [8] was 1.03 µM and the IC50 [14] was 4.73 µM. It also gave an IC50 [21] of 1.13 µM and an IC50 [22, 31] of 0.43 µM.
CC1(C)CC[C@]2(C(=O)OCCCCCCCCn3ccc(=O)n(CCCCCCCCOC(=O)[C@]45CCC(C)(C)C[C@H]4C4=CC[C@@H]6[C@@]7(C)CC[C@H](O)C(C)(C)[C@@H]7CC[C@@]6(C)[C@]4(C)CC5)c3=O)CC[C@]3(C)C(=CC[C@@H]4[C@@]5(C)CC[C@H](O)C(C)(C)[C@@H]5CC[C@]43C)[C@@H]2C1 showed an IC50 [7] of 10.3 µM, an IC50 [8] of 3.78 µM and an IC50 [14] of 37.1 µM. For the same compound, the IC50 [21] was 0.27 µM and the IC50 [22, 31] was 22.2 µM.
